Blank lines part the entries; values can stand above or below the compound they belong to. Calls of active or inactive are those of the source.
Assays:
[1] = viability of uninfected HEp-2 cells – cell-based, HTS, cytotoxicity control for RSV inhibitor project, dose response (AID 2410); assay type: functional; settings: human respiratory syncytial virus
[2] = target: Peroxisome proliferator-activated receptor gamma/Nuclear receptor coactivator 2 (Homo sapiens, UniProt P37231); assay: (§1) TR-FRET dose response biochemical High Throughput Screening assay for agonists of the steroid receptor coactivator 2 (SRC-2) recruitment by the peroxisome proliferator-activated receptor gamma (PPAR gamma): non-selective agonists. [Related pubchem assays: 1297, 1032 ]; assay type: functional
Peroxisome proliferator-activated receptor gamma/Nuclear receptor coactivator 2, sequence (P37231 whole entry): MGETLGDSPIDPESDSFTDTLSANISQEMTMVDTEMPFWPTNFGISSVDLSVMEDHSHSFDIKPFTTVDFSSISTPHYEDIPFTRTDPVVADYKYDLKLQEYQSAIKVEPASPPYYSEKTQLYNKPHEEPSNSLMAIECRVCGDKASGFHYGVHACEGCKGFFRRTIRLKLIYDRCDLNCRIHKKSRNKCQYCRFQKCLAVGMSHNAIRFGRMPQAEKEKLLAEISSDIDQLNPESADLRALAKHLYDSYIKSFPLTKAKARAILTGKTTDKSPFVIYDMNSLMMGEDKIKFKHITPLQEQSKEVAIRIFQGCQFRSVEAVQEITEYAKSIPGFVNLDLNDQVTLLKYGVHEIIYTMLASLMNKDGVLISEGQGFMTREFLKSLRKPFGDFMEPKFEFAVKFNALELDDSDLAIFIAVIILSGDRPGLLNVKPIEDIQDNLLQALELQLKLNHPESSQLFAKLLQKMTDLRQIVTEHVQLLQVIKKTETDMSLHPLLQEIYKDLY
Peroxisome proliferator-activated receptor gamma/Nuclear receptor coactivator 2, sequence (Q15596 whole entry, further chain): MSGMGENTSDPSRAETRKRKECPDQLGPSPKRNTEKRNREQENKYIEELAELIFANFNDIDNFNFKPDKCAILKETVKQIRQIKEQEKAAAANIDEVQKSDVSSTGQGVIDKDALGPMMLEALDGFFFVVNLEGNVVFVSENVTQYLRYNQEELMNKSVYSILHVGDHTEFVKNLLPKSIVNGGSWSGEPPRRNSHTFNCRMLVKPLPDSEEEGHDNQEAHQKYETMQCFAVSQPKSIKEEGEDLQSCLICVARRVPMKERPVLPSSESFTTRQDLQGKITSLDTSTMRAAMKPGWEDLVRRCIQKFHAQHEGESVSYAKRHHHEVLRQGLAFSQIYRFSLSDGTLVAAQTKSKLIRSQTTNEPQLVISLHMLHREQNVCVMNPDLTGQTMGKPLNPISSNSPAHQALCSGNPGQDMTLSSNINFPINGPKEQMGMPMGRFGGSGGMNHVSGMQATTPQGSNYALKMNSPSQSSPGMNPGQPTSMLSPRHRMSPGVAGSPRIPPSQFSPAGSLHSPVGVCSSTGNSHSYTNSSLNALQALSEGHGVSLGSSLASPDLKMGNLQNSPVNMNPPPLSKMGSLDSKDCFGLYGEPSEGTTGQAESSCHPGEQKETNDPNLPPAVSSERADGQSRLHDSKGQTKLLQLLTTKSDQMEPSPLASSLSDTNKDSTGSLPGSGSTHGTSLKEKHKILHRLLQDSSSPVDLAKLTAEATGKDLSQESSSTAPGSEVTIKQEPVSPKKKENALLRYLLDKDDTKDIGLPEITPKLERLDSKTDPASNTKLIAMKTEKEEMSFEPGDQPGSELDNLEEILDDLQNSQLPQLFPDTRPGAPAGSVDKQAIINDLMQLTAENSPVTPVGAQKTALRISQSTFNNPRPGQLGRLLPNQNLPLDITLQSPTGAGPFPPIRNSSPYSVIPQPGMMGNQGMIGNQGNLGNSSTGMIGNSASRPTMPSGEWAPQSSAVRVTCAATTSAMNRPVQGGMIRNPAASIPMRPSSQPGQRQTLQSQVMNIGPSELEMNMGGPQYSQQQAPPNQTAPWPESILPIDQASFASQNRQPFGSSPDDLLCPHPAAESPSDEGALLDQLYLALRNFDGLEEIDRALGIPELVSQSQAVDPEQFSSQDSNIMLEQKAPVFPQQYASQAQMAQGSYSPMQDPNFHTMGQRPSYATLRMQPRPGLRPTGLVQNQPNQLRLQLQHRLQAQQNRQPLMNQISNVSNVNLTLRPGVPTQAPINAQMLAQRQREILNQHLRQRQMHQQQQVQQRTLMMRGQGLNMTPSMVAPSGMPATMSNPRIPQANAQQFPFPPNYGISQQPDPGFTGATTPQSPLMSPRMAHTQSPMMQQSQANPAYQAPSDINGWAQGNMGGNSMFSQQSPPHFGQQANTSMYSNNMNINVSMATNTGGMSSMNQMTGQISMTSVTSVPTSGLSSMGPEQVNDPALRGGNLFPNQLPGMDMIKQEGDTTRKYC

[3] = target: Peroxisome proliferator-activated receptor gamma/Nuclear receptor coactivator 3 (Homo sapiens, UniProt P37231); assay: as §1, with “3 (SRC-3)” for “2 (SRC-2)”, “1301 (Confirmation screen.), 1048 (Primary screen.)]” for “1297, 1032 ]”; assay type: functional
Peroxisome proliferator-activated receptor gamma/Nuclear receptor coactivator 3, sequence (P37231 whole entry): as the sequence (P37231 whole entry) above
Peroxisome proliferator-activated receptor gamma/Nuclear receptor coactivator 3, sequence (Q9Y6Q9 whole entry, further chain): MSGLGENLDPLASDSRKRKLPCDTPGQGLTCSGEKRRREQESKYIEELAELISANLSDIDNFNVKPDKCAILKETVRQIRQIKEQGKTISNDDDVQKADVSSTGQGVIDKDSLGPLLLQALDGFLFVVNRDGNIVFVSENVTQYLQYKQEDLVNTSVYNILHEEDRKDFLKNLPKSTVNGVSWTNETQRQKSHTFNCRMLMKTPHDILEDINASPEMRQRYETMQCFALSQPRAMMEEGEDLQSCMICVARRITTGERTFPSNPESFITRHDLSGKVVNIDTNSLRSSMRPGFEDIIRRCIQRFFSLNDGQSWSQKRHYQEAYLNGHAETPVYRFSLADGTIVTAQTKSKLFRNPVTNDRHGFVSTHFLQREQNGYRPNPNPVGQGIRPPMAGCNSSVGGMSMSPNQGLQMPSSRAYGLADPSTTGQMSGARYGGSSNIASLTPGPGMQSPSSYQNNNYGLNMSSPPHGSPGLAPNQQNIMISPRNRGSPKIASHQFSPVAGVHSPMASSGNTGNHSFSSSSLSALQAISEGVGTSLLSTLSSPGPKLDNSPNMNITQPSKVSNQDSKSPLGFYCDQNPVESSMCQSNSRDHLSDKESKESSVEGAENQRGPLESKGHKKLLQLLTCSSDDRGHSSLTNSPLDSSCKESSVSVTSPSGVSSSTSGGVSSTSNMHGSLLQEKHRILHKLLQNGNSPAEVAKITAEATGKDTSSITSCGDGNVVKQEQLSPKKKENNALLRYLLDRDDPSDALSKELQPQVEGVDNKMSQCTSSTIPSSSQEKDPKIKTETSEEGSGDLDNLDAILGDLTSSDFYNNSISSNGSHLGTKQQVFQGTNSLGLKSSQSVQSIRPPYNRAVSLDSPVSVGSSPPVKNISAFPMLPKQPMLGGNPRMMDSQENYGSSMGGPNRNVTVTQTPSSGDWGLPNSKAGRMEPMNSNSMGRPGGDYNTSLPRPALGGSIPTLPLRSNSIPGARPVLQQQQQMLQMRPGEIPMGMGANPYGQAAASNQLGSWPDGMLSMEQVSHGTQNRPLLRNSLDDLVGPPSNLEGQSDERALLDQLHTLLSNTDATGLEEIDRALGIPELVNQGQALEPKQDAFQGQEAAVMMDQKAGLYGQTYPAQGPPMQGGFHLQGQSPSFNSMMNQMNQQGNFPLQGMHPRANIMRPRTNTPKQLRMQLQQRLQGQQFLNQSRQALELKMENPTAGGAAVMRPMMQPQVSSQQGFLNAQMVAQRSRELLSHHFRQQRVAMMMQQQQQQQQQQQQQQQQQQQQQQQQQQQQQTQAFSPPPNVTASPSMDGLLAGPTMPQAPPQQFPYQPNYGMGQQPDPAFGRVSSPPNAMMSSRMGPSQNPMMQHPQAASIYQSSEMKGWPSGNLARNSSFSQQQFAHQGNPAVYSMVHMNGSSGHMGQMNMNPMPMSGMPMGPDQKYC

[4] = target: Peroxisome proliferator-activated receptor gamma/Nuclear receptor coactivator 1 (Homo sapiens, UniProt P37231); assay: as §1, with “1 (SRC-1)” for “2 (SRC-2)”, “assays (depositor defined):AID1300, AID1808, AID504735, AID631]” for “assays: 1297, 1032 ]”; assay type: protein assay
[5] = blockers of HIV-1 ZM109 envelope-driven cell-cell fusion – HeLa effector, CEM target cells, luciferase, cherry-pick, dose response (AID 652058); assay type: functional, cell-based;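 note: luciferase signal from HIV-1 Env mediated cell-cell fusion of effector and target cells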
[6] = blockers of HIV-1 envelope-mediated cell-cell fusion – cherry-pick, dose response (AID 652057); assay type: functional, cell-based
[7] = off-target signal loss in HeLa-CEM21 co-culture – HeLa F-luc CTL cells, cherry-picked, counter-screen for HIV-1 Env fusion inhibitor project, dose response (AID 652040); assay type: functional, cell-based;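 note: potency for signal decrease marking cytotoxic or nonspecific inhibition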
[8] = HIV-1 AD8 envelope cell-cell fusion blockers – cherry-pick, dose response (AID 652062); assay type: functional, cell-based;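 note: luciferase signal from cell-cell fusion driven by HIV-1 clade B AD8 Env; potency is for inhibitors of fusion seen as a drop in luminescence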
[9] = blockers of CRF-binding protein–CRF-R2 complex – cell-based, uHTS hits, 384-well, dose response (AID 651639); assay type: functional, Homo sapiens; settings: read-out: IC50_Mean
[10] = target: T1, Corticotropin-releasing factor receptor 2/Corticotropin-releasing factor-binding protein (Homo sapiens, UniProt P24387+Q13324); assay: activators of CRF receptor 2 with binding protein – uHTS hits, confirmation (AID 602473); assay type: functional; settings: read-out: EC50_Mean
T1 sequence (Q13324 whole entry): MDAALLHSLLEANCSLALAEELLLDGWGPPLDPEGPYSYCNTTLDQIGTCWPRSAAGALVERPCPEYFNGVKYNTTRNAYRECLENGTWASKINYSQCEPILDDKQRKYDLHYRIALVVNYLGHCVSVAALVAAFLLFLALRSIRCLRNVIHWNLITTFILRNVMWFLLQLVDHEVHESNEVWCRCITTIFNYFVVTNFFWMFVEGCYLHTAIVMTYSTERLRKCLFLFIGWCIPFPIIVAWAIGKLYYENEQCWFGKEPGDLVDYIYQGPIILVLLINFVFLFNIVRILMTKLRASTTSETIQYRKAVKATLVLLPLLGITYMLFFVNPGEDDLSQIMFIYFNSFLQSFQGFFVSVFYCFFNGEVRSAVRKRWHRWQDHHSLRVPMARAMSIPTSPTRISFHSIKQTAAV
T1 sequence (P24387 whole entry): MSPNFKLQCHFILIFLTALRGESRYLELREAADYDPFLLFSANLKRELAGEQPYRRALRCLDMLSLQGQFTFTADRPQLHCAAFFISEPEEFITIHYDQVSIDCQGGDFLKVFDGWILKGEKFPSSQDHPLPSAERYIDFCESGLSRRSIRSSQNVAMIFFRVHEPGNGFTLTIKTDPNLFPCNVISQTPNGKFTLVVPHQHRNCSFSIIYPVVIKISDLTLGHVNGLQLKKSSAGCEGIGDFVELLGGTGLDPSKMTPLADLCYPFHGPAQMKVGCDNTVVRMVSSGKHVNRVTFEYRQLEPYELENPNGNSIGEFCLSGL

[11] = target: T1, Corticotropin-releasing factor receptor 2/Corticotropin-releasing factor-binding protein; assay: Dose Response confirmation of uHTS hits for small molecule antagonists of the CRF-binding protein and CRF-R2 receptor complex.; assay type: functional; settings: read-out: IC50_Mean
[12] = Trypanosoma cruzi growth suppression in host cells – NIH3T3 host cells, beta-gal luminescence, confirmation (AID 2044); assay type: functional, cell-based;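 note: intracellular parasites grown in NIH/3T3 mouse fibroblasts as host cells; luminescent beta-galactosidase reporter signal from transgenic T. cruzi replicating inside host cells; inhibitors lower the luminescence signal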
[13] = NIH3T3 cell viability loss – ATP luminescence, mouse fibroblasts, counter-screen, dose response (AID 2010); assay type: functional, cell-based;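 note: cells exposed to compound for about 90 hours before reading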
[14] = target: G-protein coupled receptor 55 (Homo sapiens, UniProt Q9Y2T6); assay: selective activators of receptor GPR55 – imaging, U2OS cells, beta-arrestin-GFP redistribution, primary screen (AID 1961); assay type: functional
G-protein coupled receptor 55, sequence (Q9Y2T6 whole entry): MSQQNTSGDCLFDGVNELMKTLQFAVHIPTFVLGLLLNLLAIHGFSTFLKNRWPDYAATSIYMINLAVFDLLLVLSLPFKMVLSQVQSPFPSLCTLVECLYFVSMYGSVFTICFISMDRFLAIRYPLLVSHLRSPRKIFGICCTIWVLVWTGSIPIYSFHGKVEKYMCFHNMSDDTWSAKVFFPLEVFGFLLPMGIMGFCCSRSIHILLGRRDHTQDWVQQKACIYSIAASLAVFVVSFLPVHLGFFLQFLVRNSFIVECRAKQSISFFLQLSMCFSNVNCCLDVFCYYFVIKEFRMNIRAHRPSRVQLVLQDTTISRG

[15] = target: Eukaryotic translation initiation factor 4E (Mus musculus, UniProt P63073); assay: blockers of eIF4G binding by eIF4E – biochemical, TR-FRET, dose response (AID 855); assay type: functional;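 note: potency for disrupting eIF4E binding to eIF4GI seen as loss of FRET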
Eukaryotic translation initiation factor 4E, sequence (P63073 whole entry): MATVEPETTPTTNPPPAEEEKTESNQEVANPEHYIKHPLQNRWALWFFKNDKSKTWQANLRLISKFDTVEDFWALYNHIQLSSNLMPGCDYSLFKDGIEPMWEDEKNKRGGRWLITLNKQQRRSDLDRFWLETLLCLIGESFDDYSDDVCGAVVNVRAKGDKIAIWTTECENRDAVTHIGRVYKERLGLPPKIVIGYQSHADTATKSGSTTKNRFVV

[16] = target: T2, Mannose-6-phosphate isomerase (Homo sapiens, UniProt P34949); assay: MPI inhibition at elevated mannose 6-phosphate – biochemical, fluorescence intensity, high mannose 6-phosphate, primary screen (AID 1220)
T2 sequence (P34949 whole entry): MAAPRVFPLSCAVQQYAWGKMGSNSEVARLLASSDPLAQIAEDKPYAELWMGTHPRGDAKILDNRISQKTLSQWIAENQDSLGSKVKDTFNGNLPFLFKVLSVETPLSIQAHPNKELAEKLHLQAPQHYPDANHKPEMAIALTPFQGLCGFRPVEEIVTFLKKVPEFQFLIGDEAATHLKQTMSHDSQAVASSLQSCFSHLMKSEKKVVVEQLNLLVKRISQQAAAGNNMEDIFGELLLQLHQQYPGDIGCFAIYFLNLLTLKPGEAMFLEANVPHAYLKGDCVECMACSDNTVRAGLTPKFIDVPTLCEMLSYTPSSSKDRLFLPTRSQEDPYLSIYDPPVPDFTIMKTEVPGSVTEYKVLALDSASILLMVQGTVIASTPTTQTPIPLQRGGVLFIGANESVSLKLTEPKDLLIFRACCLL

[17] = target: T3, High affinity choline transporter 1 (Homo sapiens, UniProt Q9GZV3); assay: human choline transporter blockers, potency – cell-based, 5-point CRC, membrane potential dye, dose response (AID 504840); assay type: functional
T3 sequence (Q9GZV3 whole entry): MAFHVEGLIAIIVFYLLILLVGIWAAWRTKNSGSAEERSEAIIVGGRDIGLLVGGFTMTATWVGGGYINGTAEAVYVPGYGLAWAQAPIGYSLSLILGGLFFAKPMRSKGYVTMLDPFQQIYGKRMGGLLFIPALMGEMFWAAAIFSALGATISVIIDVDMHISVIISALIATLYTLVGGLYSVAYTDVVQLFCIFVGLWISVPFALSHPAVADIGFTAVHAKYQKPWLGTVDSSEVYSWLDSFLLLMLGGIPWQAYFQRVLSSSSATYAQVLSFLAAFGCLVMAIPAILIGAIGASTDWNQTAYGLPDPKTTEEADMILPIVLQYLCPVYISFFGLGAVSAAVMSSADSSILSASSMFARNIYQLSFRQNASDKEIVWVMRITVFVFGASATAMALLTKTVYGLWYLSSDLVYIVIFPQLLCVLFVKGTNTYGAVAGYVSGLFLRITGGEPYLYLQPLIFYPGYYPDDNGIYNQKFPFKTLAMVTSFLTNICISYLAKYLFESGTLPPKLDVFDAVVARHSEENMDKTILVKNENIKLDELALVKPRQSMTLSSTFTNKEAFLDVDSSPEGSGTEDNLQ

Cytochrome P450 2D6 = Cytochrome P450 2D6 (Homo sapiens, UniProt P10635);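 note: CYP2D6 member of a cytochrome P450 panel assay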
Prothrombin = Prothrombin (Homo sapiens, UniProt P00734); assay: Thrombin 1536 HTS Dose Response Confirmation. [Related pubchem assays: 1046 (Thrombin 1536 HTS; hits were confirmed in this assay)]; assay type: functional
[18] = HEK-293T viability loss after treatment – luminescence, T-cell screen hits, cytotoxicity control for TCR NF-kB inhibitor project, dose response (AID 489026); assay type: functional, cell-based;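 note: cells exposed to compound about 14 hours before the viability readout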
[19] = target: DNA dC->dU-editing enzyme APOBEC-3G (Homo sapiens, UniProt Q9HC16); assay: Dose Response confirmation of small molecule APOBEC3G DNA Deaminase Inhibitors via a fluorescence-based single-stranded DNA deaminase assay. [Related pubchem assays (depositor defined):AID493012, AID493028]; assay type: functional
DNA dC->dU-editing enzyme APOBEC-3G, sequence (Q9HC16 whole entry): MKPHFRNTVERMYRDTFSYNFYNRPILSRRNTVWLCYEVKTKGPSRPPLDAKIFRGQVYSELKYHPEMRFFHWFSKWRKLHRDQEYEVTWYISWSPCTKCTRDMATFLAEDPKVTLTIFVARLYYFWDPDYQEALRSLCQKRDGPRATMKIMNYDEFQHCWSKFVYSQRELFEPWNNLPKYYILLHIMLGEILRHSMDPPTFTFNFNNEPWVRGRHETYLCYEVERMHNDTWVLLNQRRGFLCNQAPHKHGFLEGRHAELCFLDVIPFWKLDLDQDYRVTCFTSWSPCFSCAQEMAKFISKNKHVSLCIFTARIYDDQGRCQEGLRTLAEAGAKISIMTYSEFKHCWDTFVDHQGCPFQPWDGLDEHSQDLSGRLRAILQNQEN

[20] = target: T4, DNA repair protein RAD52 homolog (Homo sapiens, UniProt P43351); assay type: functional, biochemical
T4 sequence (P43351 whole entry): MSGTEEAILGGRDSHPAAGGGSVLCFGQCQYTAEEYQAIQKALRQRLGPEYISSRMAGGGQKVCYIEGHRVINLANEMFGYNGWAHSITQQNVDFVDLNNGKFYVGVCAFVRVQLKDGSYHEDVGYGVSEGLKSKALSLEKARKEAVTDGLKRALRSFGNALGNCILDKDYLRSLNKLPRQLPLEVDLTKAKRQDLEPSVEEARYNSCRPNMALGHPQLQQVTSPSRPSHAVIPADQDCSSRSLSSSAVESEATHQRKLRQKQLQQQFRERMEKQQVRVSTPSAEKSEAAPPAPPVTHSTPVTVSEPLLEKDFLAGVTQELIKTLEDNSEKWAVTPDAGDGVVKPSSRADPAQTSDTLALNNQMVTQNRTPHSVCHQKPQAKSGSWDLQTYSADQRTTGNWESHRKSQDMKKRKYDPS

SMILES: COc1cc(C(C(=O)NC2CCCCC2)N(C(=O)c2snc(C(N)=O)c2N)c2ccc(C)cc2)ccc1O (centres undefined)
IC50 (cells): 47 µM (active) | CC50 [1]: > 50 µM (active)

SMILES: CN(CC(=O)NCCc1ccc(S(N)(=O)=O)cc1)CC(=O)Nc1ccc(Cl)c(C(F)(F)F)c1
AC50 [5]: 2.95 µM (active) | AC50 [6]: 5.63 µM (active) | AC50 [7]: 7.96 µM (active) | AC50 [8]: 11.9 µM (active)

SMILES: O=C(Nc1nc2ccc(S(=O)(=O)N3CCCC3)cc2s1)c1ccccn1
IC50 [9]: > 20 µM (inactive) | EC50 [10]: > 53 µM (inactive) | IC50 [11]: 28.6 µM (active) | EC50 [12]: 2.15 µM (active) | EC50 [13]: 5.13 µM (active)

SMILES: CCN(CC)C(=S)SC1=CCS(=O)(=O)C1
IC50 [16]: 24.5 µM (active)

SMILES: COc1ccc(S(=O)(=O)Nc2ccc3c(c2)CC(=O)N([C@@H](C)CO)C[C@H](C)[C@H](CN(C)S(=O)(=O)c2ccccc2)O3)cc1
AC50 [5]: 1.82 µM (active) | AC50 [6]: 2.12 µM (active) | AC50 [8]: 11.6 µM (active)

SMILES: COc1ccc(C2=Nn3c(nnc3-c3ccccc3OC)SC2)cc1OC1CCCC1
IC50 [18]: 35.9 µM (inactive)

SMILES: CC(=O)Oc1cc(OC(C)=O)c2c(C)cc(=O)oc2c1
IC50 (cells): 25.3 µM (active)

SMILES: CCc1ccc(-n2c(C)nnc2S)cc1
IC50 [19]: 14.6 µM (active)

SMILES: CCn1c(SCc2c(Cl)cccc2Cl)nnc1-c1nn(-c2ccccc2)ccc1=O
IC50 (cells): 33.7 µM (active) | CC50 [1]: 49.8 µM (active)

SMILES: CC(C)(C)C1=Nn2c(nnc2-c2n[nH]c3c2CCC3)SC1
IC50 [16]: > 50 µM (not active) | IC50 [19]: 23.3 µM (active)

SMILES: COc1ccc(OC(=O)N(C)C[C@@H]2OCc3ccccc3-c3c(n(C)c4ccccc34)C(=O)N([C@H](C)CO)C[C@@H]2C)cc1
AC50 [5]: 1.44 µM (active) | AC50 [6]: 1.62 µM (active) | AC50 [7]: 2.43 µM (active) | AC50 [8]: 3.25 µM (active)

SMILES: CCN(CC)S(=O)(=O)c1cc(F)ccc1OC
IC50 [15]: > 64 µM (inactive)

SMILES: CCOC(=O)c1[nH]c(C)c(C(=O)Nc2ccccc2C)c1C
IC50 [18]: > 80 µM (inactive)

SMILES: CSc1ccc(S(=O)(=O)N2CCC(C(=O)N3CCc4ccccc4C3)CC2)cc1
IC50 [17]: 17.4 µM (active)

Other lines, results leading:

EC50 [2]: > 79.4 µM (not active) | EC50 [3]: > 79.4 µM (not active) | EC50 [4]: > 79.4 µM (inactive)
SMILES: CCOC(=O)C1CCN(C(=O)CSc2cc(=O)n(CC)c3ccccc23)CC1

EC50 [14]: 0.523 µM (active)
SMILES: CCOC(=O)c1sc2cc([N+](=O)[O-])cc(SCC(C)C)c2c1N

IC50 [15]: > 64 µM (inactive)
SMILES: COC(=O)c1ccccc1NC(=O)COC(=O)c1ccc(C)c(NC(=O)c2ccco2)c1

EC50 [10]: 15.6 µM (active) | IC50 [17]: 13.2 µM (active)
SMILES: COc1ccc2c(c1)OC(O)(C(F)(F)C(F)F)CC2=O (centres undefined)

AC50 (Cytochrome P450 2D6): 20 µM (inconclusive) | IC50 (Prothrombin): > 50 µM (not active) | IC50 [17]: 14.5 µM (active)
SMILES: CCOC(=O)c1ccccc1Oc1c(F)c(F)nc(NCCO)c1F

IC50 [9]: 10.6 µM (active) | EC50 [10]: > 53 µM (inactive) | IC50 [11]: 39 µM (active)
SMILES: COCCNc1nc2c(S(=O)(=O)c3cc(C)ccc3C)nnn2c2ccccc12

IC50 [9]: > 20 µM (inactive) | EC50 [10]: > 53 µM (inactive) | IC50 [11]: 6.89 µM (active)
SMILES: COc1ccc(/C=C/C(=O)NCc2cn(C)nc2C)cc1COc1ccc(Cl)cc1Br

AC50 [20]: 13.2 µM (active)
SMILES: N=C(N)Nc1ccc(/C=C2\C=Cc3ccccc32)cc1

EC50 [2]: 26 µM (not active) | EC50 [3]: > 79.4 µM (not active) | EC50 [4]: 94.8 µM (inactive)
SMILES: O=C(O)Cc1sc(-c2ccccc2)nc1-c1cccs1

IC50 [9]: 8.13 µM (active) | EC50 [10]: > 53 µM (inactive) | IC50 [11]: 13.9 µM (active)
SMILES: CC1=C(c2ccccc2)C(O)(c2ccccc2)C(C)C1=O (centres undefined)

IC50 [16]: > 50 µM (not active)
SMILES: N#Cc1c2ccc(OCC(N)=O)cc2n2ccccc12

AC50 [20]: 12.6 µM (active)
SMILES: Cc1ccc2nc(NC(=N)N)nc(C)c2c1
